In the assay the test system is P388 leukemia ip, CD2F1 mice, survival T/C. The assay can be described thus: NCI In Vivo Anticancer Drug Screen. Data for tumor model P388 Leukemia (intraperitoneal) in CD2F1 (CDF1) mice. The conditions noted are these: endpoint: median survival time, higher = longer survival. An outline of the steps:
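Mice carrying the transplanted tumor received test compound or vehicle. Survival was recorded in each group, and the value is the treated-group measurement divided by that of the vehicle-treated control group.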

Where [1] appears, read: dose: 12.5 mg/kg/injection, schedule: Q01DX009 (ip), vehicle: saline with Tween-80.
[2] abbreviates: dose: 25.0 mg/kg/injection, schedule: Q01DX009 (ip), vehicle: saline with Tween-80.
[3] abbreviates: dose: 50.0 mg/kg/injection, schedule: Q01DX009 (ip), vehicle: saline with Tween-80.
The mark [4] stands for this setting: dose: 100.0 mg/kg/injection, schedule: Q01DX009 (ip), vehicle: saline.
The mark [5] stands for this setting: dose: 50.0 mg/kg/injection, schedule: Q01DX009 (ip), vehicle: saline.

“And” between values parts separate entries of the source, which are not always exact repeats. Equal values may be shown once. Inconclusive results and toxic doses are left out.

For `O=C(CCC1(CCC(=O)c2ccccc2)c2ccccc2C(=O)c2ccccc21)c1ccccc1`, the T/C runs as follows: (dose: 25.0 mg/kg/injection, schedule: Q04DX003 (ip), vehicle: Klucel (hydroxypropylcellulose) (HPC)) 93 % of control; (dose: 50.0 mg/kg/injection, schedule: Q04DX003 (ip), vehicle: Klucel (hydroxypropylcellulose) (HPC)) 108 % of control; (dose: 100.0 mg/kg/injection, schedule: Q04DX003 (ip), vehicle: Klucel (hydroxypropylcellulose) (HPC)) 86 % of control; (dose: 200.0 mg/kg/injection, schedule: Q04DX003 (ip), vehicle: Klucel (hydroxypropylcellulose) (HPC)) 91 % of control.
With `CCC1(O)CC(OC2CC(NC)C(OC3CC(O)C(OC4CC(O)C(O)C(C)O4)C(C)O3)C(C)O2)c2c(cc3c(c2O)C(=O)c2c(O)ccc(O)c2C3=O)C1C(=O)OC` (stereo not given), the T/C reads like this: (dose: 3.13 mg/kg/injection, schedule: Q04DX003 (ip), vehicle: Klucel (hydroxypropylcellulose) (HPC)) 115 % of control; (dose: 6.25 mg/kg/injection, schedule: Q04DX003 (ip), vehicle: Klucel (hydroxypropylcellulose) (HPC)) 118 % of control; (dose: 12.5 mg/kg/injection, schedule: Q04DX003 (ip), vehicle: Klucel (hydroxypropylcellulose) (HPC)) 115 % of control.
Regarding `S=C(N/N=C\c1nc2ccccc2c2ccccc12)Nc1ccccc1`, the T/C was 99 % of control (dose: 100.0 mg/kg/injection, schedule: Q04DX002 (ip), vehicle: Klucel (hydroxypropylcellulose) (HPC)); 94 % of control (dose: 200.0 mg/kg/injection, schedule: Q04DX002 (ip), vehicle: Klucel (hydroxypropylcellulose) (HPC)); 93 % of control (dose: 400.0 mg/kg/injection, schedule: Q04DX002 (ip), vehicle: Klucel (hydroxypropylcellulose) (HPC)).
For `CC(=O)c1ccc(N=C2C(=O)Nc3ccccc32)cc1`, the T/C is 93 % of control under setting [1]; 87 % of control under setting [2]; 89 % of control and 96 % of control under setting [3]; 105 % of control (dose: 100.0 mg/kg/injection, schedule: Q01DX009 (ip), vehicle: saline with Tween-80); 116 % of control (dose: 200.0 mg/kg/injection, schedule: Q01DX009 (ip), vehicle: saline with Tween-80).
For `COc1ccc(CCN(Cc2ccc([N+](=O)[O-])cc2)C(=O)c2ccccc2)c(C=O)c1OC`, the T/C is 95 % of control (dose: 100.0 mg/kg/injection, schedule: Q01DX001 (ip), vehicle: saline + alcohol); 97 % of control (dose: 200.0 mg/kg/injection, schedule: Q01DX001 (ip), vehicle: saline + alcohol); 89 % of control (dose: 400.0 mg/kg/injection, schedule: Q01DX001 (ip), vehicle: saline + alcohol).
Consider `N#CC1=C(N)OC(C2CC2)=C(C#N)C1c1cccs1` (stereo not given), for which the T/C by setting is: (dose: 60.0 mg/kg/injection, schedule: Q01DX005 (ip), vehicle: Klucel (hydroxypropylcellulose) (HPC)) 104 % of control; (dose: 120.0 mg/kg/injection, schedule: Q01DX005 (ip), vehicle: Klucel (hydroxypropylcellulose) (HPC)) 100 % of control; (dose: 240.0 mg/kg/injection, schedule: Q01DX005 (ip), vehicle: Klucel (hydroxypropylcellulose) (HPC)) 96 % of control.
For the compound `COC(=O)[C@@]12OC[C@]34C([C@@H](O)C1O)[C@@]1(C)CC(=O)C(O)=C(C)C1C[C@H]3OC(=O)[C@H](OC(=O)c1cccc(Cl)c1)[C@H]42` (stereo not given in full), the T/C by setting is: (dose: 0.25 mg/kg/injection, schedule: Q01DX005 (ip), vehicle: DMSO) 119 % of control; (dose: 0.5 mg/kg/injection, schedule: Q01DX005 (ip), vehicle: DMSO) 112 % of control; (dose: 1.0 mg/kg/injection, schedule: Q01DX005 (ip), vehicle: DMSO) 121 % of control and 93 % of control; (dose: 2.0 mg/kg/injection, schedule: Q01DX005 (ip), vehicle: DMSO) 109 % of control and 110 % of control; (dose: 4.0 mg/kg/injection, schedule: Q01DX005 (ip), vehicle: DMSO) 105 % of control; (dose: 8.0 mg/kg/injection, schedule: Q01DX005 (ip), vehicle: DMSO) 101 % of control and 104 % of control. Moreover, the T/C was 111 % of control (dose: 16.0 mg/kg/injection, schedule: Q01DX005 (ip), vehicle: DMSO) and 108 % of control (dose: 32.0 mg/kg/injection, schedule: Q01DX005 (ip), vehicle: DMSO).
`O=C(N/N=C/c1cccc2ccccc12)c1cccnc1`: the T/C was 100 % of control (dose: 6.25 mg/kg/injection, schedule: Q01DX009 (ip), vehicle: saline); 89 % of control (dose: 12.5 mg/kg/injection, schedule: Q01DX009 (ip), vehicle: saline); 98 % of control under setting [4].
On to `CN(C)CCCNCC#CCNCCCN(C)C`, for which the T/C runs as follows: under setting [5], 100 % of control; under setting [4], 105 % of control; (dose: 200.0 mg/kg/injection, schedule: Q01DX009 (ip), vehicle: saline) 105 % of control.
`CS(=O)(=O)OCC(Br)C(Br)COS(C)(=O)=O` (stereo not given): the T/C is, setting by setting: (dose: 50.0 mg/kg/injection, schedule: Q01DX009 (ip), vehicle: Klucel (hydroxypropylcellulose) (HPC)) 107 % of control; (dose: 100.0 mg/kg/injection, schedule: Q01DX009 (ip), vehicle: Klucel (hydroxypropylcellulose) (HPC)) 87 % of control.
Consider `CC(N)C(=O)OCN1C(=O)C2C3C=CC(C2C1=O)C1C2C(=O)N(COC(=O)C(C)N)C(=O)C2C31` (stereo not given), for which the T/C runs as follows: (dose: 25.0 mg/kg/injection, schedule: Q01DX009 (ip), vehicle: water) 109 % of control and 112 % of control; (dose: 50.0 mg/kg/injection, schedule: Q01DX009 (ip), vehicle: water) 108 % of control; (dose: 100.0 mg/kg/injection, schedule: Q01DX009 (ip), vehicle: water) 178 % of control and 193 % of control.
`O=[N+]([O-])c1ccc(/C(=C/c2ccc(Cl)cc2Cl)S(=O)(=O)C(Cl)Cl)o1`: the T/C runs as follows: (dose: 50.0 mg/kg/injection, schedule: Q01DX009 (ip), vehicle: suspension in saline) 86 % of control; (dose: 100.0 mg/kg/injection, schedule: Q01DX009 (ip), vehicle: suspension in saline) 96 % of control; (dose: 200.0 mg/kg/injection, schedule: Q01DX009 (ip), vehicle: suspension in saline) 103 % of control.
As for `CO[C@H]1C[C@H]2CC[C@@]1(C)C2(C)C`, the T/C (dose: 60.0 mg/kg/injection, schedule: Q01DX005 (ip), vehicle: saline) is 104 % of control; the T/C (dose: 120.0 mg/kg/injection, schedule: Q01DX005 (ip), vehicle: saline) is 104 % of control; the T/C (dose: 240.0 mg/kg/injection, schedule: Q01DX005 (ip), vehicle: saline) is 100 % of control.
In the case of `CCCCCCCCCCCCCCCC[N+](C)(C)CCNC(C)=O`, the T/C under setting [1] was 100 % of control, the T/C under setting [2] is 102 % of control and the T/C under setting [3] is 90 % of control.
With `CCCC(Cc1ccccc1)C(=O)O` (stereo not given), the T/C is 123 % of control (dose: 100.0 mg/kg/injection, schedule: Q01DX001 (ip), vehicle: saline with Tween-80); 108 % of control (dose: 200.0 mg/kg/injection, schedule: Q01DX001 (ip), vehicle: saline with Tween-80); 124 % of control (dose: 400.0 mg/kg/injection, schedule: Q01DX001 (ip), vehicle: saline with Tween-80).
In the case of `CC1(C(O)CO)C=C2CCC3C(C)(C)C(O)CCC3(C)C2CC1` (stereo not given), the T/C (dose: 2.25 mg/kg/injection, schedule: Q01DX009 (ip), vehicle: Klucel (hydroxypropylcellulose) (HPC)) is 108 % of control; the T/C (dose: 4.5 mg/kg/injection, schedule: Q01DX009 (ip), vehicle: Klucel (hydroxypropylcellulose) (HPC)) was 103 % of control; the T/C (dose: 9.0 mg/kg/injection, schedule: Q01DX009 (ip), vehicle: Klucel (hydroxypropylcellulose) (HPC)) is 103 % of control; the T/C (dose: 18.0 mg/kg/injection, schedule: Q01DX009 (ip), vehicle: Klucel (hydroxypropylcellulose) (HPC)) was 93 % of control.
In the case of `Cc1nn(CCO)c(-c2ccccc2)c1-n1on1-c1c(C)nn(CCO)c1-c1ccccc1`, the T/C by setting is: (dose: 25.0 mg/kg/injection, schedule: Q01DX009 (ip), vehicle: saline) 97 % of control; under setting [5], 98 % of control; under setting [4], 98 % of control.
As to `Nc1ccc(Cn2ccc3c4c(N)nc(N)nc4ccc32)cc1`, the T/C is 106 % of control and 117 % of control (dose: 1.25 mg/kg/injection, schedule: Q01DX009 (ip), vehicle: saline with Tween-80); 110 % of control and 111 % of control and 112 % of control (dose: 2.5 mg/kg/injection, schedule: Q01DX009 (ip), vehicle: saline with Tween-80); 121 % of control (dose: 5.0 mg/kg/injection, schedule: Q01DX009 (ip), vehicle: saline with Tween-80); 151 % of control and 186 % of control (dose: 10.0 mg/kg/injection, schedule: Q01DX009 (ip), vehicle: saline with Tween-80); 182 % of control (dose: 20.0 mg/kg/injection, schedule: Q01DX009 (ip), vehicle: saline with Tween-80); 105 % of control (dose: 40.0 mg/kg/injection, schedule: Q01DX009 (ip), vehicle: saline with Tween-80).

Values taken from PubChem BioAssay AID330 (DTP/NCI, 2004).
